Data as given in publication PMC3005796 (Biochemistry, 2010).

Legend:
[1] = system: 2B6; settings: ref [20]; cited from earlier work
[2] = biological target: T1, Human cytochrome P450 2B6dH (Homo sapiens, UniProt P20813); settings: 1 μM P450, 25 °C, 50 mM potassium phosphate pH 7.4, 500 mM NaCl, 500 mM sucrose
[3] = biological target: T2, P450 2B4 (Oryctolagus cuniculus, UniProt P00178, H226Y); assay: biochemical
[4] = biological target: P450 2B6 (Homo sapiens, UniProt P20813, D28G/E2A/H23K/H27K/N25S/P24T/R22K/R29K/T26S); assay: biochemical
[5] = biological target: T2, P450 2B4; settings: ratio 2B4/2B6
[6] = biological target: T1, Human cytochrome P450 2B6dH; assay: biochemical
[7] = biological target: T3, Cytochrome P450 2B4dH(H226Y) (Oryctolagus cuniculus, UniProt P00178, H226Y); assay: biochemical
[8] = biological target: T3, Cytochrome P450 2B4dH(H226Y); settings: for ΔAmax: 2B4dH, 1 μM P450, 25 °C, 50 mM potassium phosphate pH 7.4, 500 mM NaCl, 500 mM sucrose

## COC(=O)[C@H](c1ccccc1Cl)N1CCc2sccc2C1 [Clopidogrel, clopidogrel]
[1]
  suppression of bupropion hydroxylation by 2B6: 68%
[2]
  ΔAmax: 0.04 ± 0.005 OU μM^-1
[3]
  Ki: 360 ± 40 nM
[4]
  Ki: 100 ± 10 nM
[5]
  fold higher Ki of 2B4 than 2B6: 4 fold
[6]
  Kd: 100 ± 70 nM
[7]
  Kd: 600 ± 60 nM
[8]
  ΔAmax: 0.05 ± 0.001 OU μM^-1
[8]; ratio 2B4/2B6
  fold higher Ks of 2B4 compared with 2B6: ~6 fold

## Clc1ccccc1CN1CCc2sccc2C1 [Ticlopidine, ticlopidine]
[1]
  suppression of bupropion hydroxylation by 2B6: 90%
[2]
  ΔAmax: 0.02 ± 0.001 OU μM^-1
[3]
  Ki: 810 ± 100 nM
[7]
  Kd: 1300 ± 100 nM
[8]
  ΔAmax: 0.03 ± 0.008 OU μM^-1
